In patent US11419875B2, “Compounds and compositions for treating hematological disorders” (Aurigene Discovery Technologies Limited, priority 2017, dated 2022):

Columns and labels:
MV4-11 cells [1] = experiment: MV4-11 CellTiter Glo cell viability/proliferation assay (Example 2); assay type: cell-based; conditions: Homo sapiens, procedure of Example 2, read-out: IC50, inhibition of proliferation in MV4-11 cells
Method: The CellTiter Glo Luminescent cell viability assay is a highly sensitive homogenous assay to determine the number of viable cells in culture based on quantitation of ATP levels in metabolically active cells. Addition of CTG reagent results in cell lysis and generation of a luminescent signal proportional to the amount of ATP present. The amount of ATP is proportional to the number of cells present. The luminescence is measured using a multilabel reader capable of measuring luminescence. An increase or decrease in cell numbers results in a concomitant change in luminescene level, indicating the effect of the test material on cellular proliferation.
CellTiter-Glo buffer was thawed and equilibrated to room temperature. Lyophilized CellTiter-Glo substrate was brought to room temperature. CTG reagent is prepared by mixing the CellTiter-Glo buffer (Promega Cat #G7572) into an amber bottle containing CellTiter-Glo substrate to reconstitute the lyophilized enzyme/substrate mixture. Both Buffer and the lyophilized substrate are supplied with the kit.
Add 1% Penicillin Streptomycin and 10% FBS to commercially available liquid IMDM (Iscove's Modified Dulbecco's Medium, Invitrogen Cat #12440046).
1. MV4-11 cells were counted and re-suspended to a density of 0.1×10^6 cells/ml in complete IMDM medium. 95 μL of this cell suspension was added per well of a 96-well plate (black plate with clear bottom) to seed ˜0.1×10^5 cells per well. The plates were incubated at 37° C. under a humidified atmosphere of 5% CO2 for ˜2 hours before compound addition. 2. Test compounds were dissolved in 100% DMSO to generate a 2/6/10/20 mM stock solution. A 200× concentration of the required final concentrations was prepared in DMSO. 10 μL of each concentration (200×) was then diluted in 90 μL of serum-free IMDM to prepare an intermediate concentration of 20× in medium. The DMSO concentration in this step was 10% (Intermediate dilution). 5 μL of each intermediate dilution was then added in triplicates to cells previously seeded in 96-well plate. The final DMSO concentration was 0.5% in the experimental wells. Cells treated with 0.5% DMSO served as a positive control. 100 μL of complete IMDM medium served as media blank for data analysis. 200 μL of 1×PBS was added in all corner wells of the assay plate to avoid evaporation of media in experimental wells. Plates were then incubated for 72 hours in an incubator with 5% CO2 at 37° C. 3. To terminate the assay, 50 μL of CTG reagent was added to each well and the plate was incubated at room temperature for 15 minutes on a shaker. The plate was read using the luminescence mode on a multilabel reader capable of measuring luminescence. The luminescence values were plotted against respective concentrations of the test item using GraphPad Prism to calculate the IC50 value for the test item. Percent Inhibition is Calculated as Follows: […]
Positive control wells contained cells, IMDM medium and 0.5% DMSO. Blank control wells contained IMDM medium alone.

[2] = system: MOLM-14 FLT3-ITD/F691L tumors; experiment: MOLM-14 FLT3-ITD/F691L mouse xenograft tumor model; assay type: in vivo, athymic nude mice; conditions: 100 mg/kg orally once-daily, after 12 or 14 days of dosing
Source text: (§1) Compound A efficacy was compared to mice administered vehicle.

MV4-11 cell line = experiment: Anti-proliferative activity, MV4-11 cell line (Example 5, CellTiter Glo); assay type: cell-based; conditions: Homo sapiens, Example 5 procedure, 5,000 cells/well
Method: (§2) The same procedure was used for both the MV4-11 cells and MOLM-13 cells. Each cell line has an ITD mutation in the FLT-3 kinase.
(§3) The cells were grown to ˜80% confluence, split in half and grown overnight. The cells were seeded at a density of 5,000 cells/well in a volume of 150 μL into a 96-well black plate in all wells except columns 1 and 12 and rows A and H. They were incubated overnight in 10% serum and HBSS was added to wells on the periphery. In a deep 96-well plate, 1000 μL of 10% FBS was added into wells B2 and D2. 750 μL of 10% FBS, 1% DMSO medium per well was added in row B except well B2. 5 μL of 20 mM compound was added into well B2. 250 μL was transferred from column 2 to column 3 and mixed. The process was repeated until column G to give a 1:4 dilution. 15 μL of compound mixture was added to each well of the cell plate (135 μL volume).

[3] = system: MOLM-14 FLT3-ITD/D835Y tumors; experiment: MOLM-14 FLT3-ITD/D835Y mouse xenograft tumor model; assay type: in vivo, athymic nude mice; conditions: 100 mg/kg orally once-daily, after 12 or 14 days of dosing
Source text: as §1

MOLM-14 FLT3-ITD/D835Y = experiment: Cell viability assay (CellTiter-Glo, 72 h), MOLM-14 FLT3-ITD/D835Y; assay type: cell-based; conditions: Homo sapiens, mean of at least 3 assays
Method: (§4) The parental MOLM-14 cell line contained a FLT3-ITD mutation. Quizartinib-resistant MOLM-14 derivative cell lines MOLM-14 FLT3-ITD/D835Y and MOLM-14 FLT3-ITD/F691L contained a double FLT3 mutation (the original ITD mutation and a secondary mutation within the kinase domain).
(§5) All cells lines were cultured in RPMI 1640+GlutaMAX supplemented with 1× Pen-Strep and 10% FBS (referred to as media hereafter). Cells were cultured in 75 cm^2 or 225 cm^2 tissue culture flasks in a 37° C. humidified tissue culture incubator with 5% CO2. Cell densities were maintained between 0.5-2.0×10^6 cells/mL.
(§6) Two days before compound treatment, cells were pelleted and resuspended in fresh medium. The day of dosing, cells were counted and stained with trypan blue to determine cell viability. 5,000 viable cells were transferred in a volume of 90 μL or 135 μL per well to all wells of a 96-well tissue culture plate and returned to the tissue culture incubator. […]
(§7) After 72 h incubation, cell viability was assessed using the CellTiter-Glo Luminescent Cell Viability Assay (2.0) according to the vendor's instructions. […] Luminescence readings were measured using a TopCount384 instrument.
(§8) The percent inhibition of the compound treated samples was determined relative to the DMSO-treated cell control samples. […] The mean EC50 values from at least 3 independent viability assays performed on different days were determined.

MOLM-14 FLT3-ITD tumors = experiment: MOLM-14 FLT3-ITD mouse xenograft tumor model; assay type: in vivo, athymic nude mice; conditions: 100 mg/kg orally once-daily, after 12 or 14 days of dosing
Source text: as §1

MOLM-14 FLT3-ITD/F691L = experiment: Cell viability assay (CellTiter-Glo, 72 h), MOLM-14 FLT3-ITD/F691L; assay type: cell-based; conditions: Homo sapiens, mean of at least 3 assays
Method: as §4, §5, §6, §7, §8

MV4-11 cells [4] = experiment: AML xenograft model MV4-11, in vivo tumor growth inhibition
Method: ND-2158 at 100 mpk was used as a control.
MV4-11 cells were grown in Iscove's Modified Dulbecco's medium supplemented with 10% FBS and 1% penicillin streptomycin. To establish tumors, 15×10^6 MV4-11 cells were injected subcutaneously in 200 μl of 1:1 HBSS and ECM gel into the right flank of the athymic nude mice. Animals were randomized based on tumor volumes. […] Treatments were initiated when the average tumor volume sizes were 333 mm^3. Tumor volumes were measured three times a week and body weights were monitored daily.

MOLM-13 cell line = experiment: Anti-proliferative activity, MOLM-13 cell line (Example 5, CellTiter Glo); assay type: cell-based; conditions: Homo sapiens, Example 5 procedure, 5,000 cells/well
Method: as §2, §3

[5] = system: MOLM-14 cell line (FLT3-ITD); experiment: Cell viability assay (CellTiter-Glo, 72 h), parental MOLM-14; assay type: cell-based; conditions: Homo sapiens, mean of at least 3 assays
Method: as §4, §5, §6, §7, §8

Cc1cc(-c2nc(C(=O)Nc3cc4oc(N5CCOCC5)nc4nc3N3CC[C@@H](O)C3)co2)ccn1 [Compound A]
IC50 (MV4-11 cells [1]): 31 nM
percent tumor growth inhibition (% TGI) [2]: 73%
IC50 (MV4-11 cell line): 70 nM
percent tumor growth inhibition (% TGI) [3]: 98%
EC50 (MOLM-14 FLT3-ITD/D835Y): 108 nM
percent tumor growth inhibition (% TGI) (MOLM-14 FLT3-ITD tumors): 90%
EC50 (MOLM-14 FLT3-ITD/F691L): 2490 nM
tumor growth inhibition (MV4-11 cells [4]; 12.5 mg/kg orally once daily, 21 days): 92%
tumor response (MV4-11 cells [4]; 25 mg/kg orally once daily, 21 days): partial tumor regression
tumor response (MV4-11 cells [4]; 50 mg/kg orally once daily, 21 days): partial tumor regression
tolerability (clinical signs, gross pathological changes) (MV4-11 cells [4]; 12.5, 25, and 50 mg/kg orally once daily, 21 days): well tolerated without any treatment related clinical signs and gross pathological changes
tumor response (MV4-11 cells [4]; 12.5 mpk, after 21 days of treatment): Tumor growth stasis
body weight (MV4-11 cells [4]; all treatment groups, 21 days, FIG. 4): No body weight reduction was observed
IC50 (MOLM-13 cell line): 190 nM
EC50 [5]: 58 nM
